Results reported in ChEMBL document CHEMBL1201861, “Genomics of Drug Sensitity in Cancer screening data, Wellcome Trust Sanger Institute”.

Tests used:
[1] = tested on: LC-1F; experiment: cells; type: functional, cell-based; settings: Homo sapiens;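 also: growth inhibition of human LC-1F cells, read out with a cell viability assay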
Description: SANGER: Inhibition of human LC-1F cell growth in a cell viability assay.

[2] = tested on: U-698-M; experiment: cells; type: functional, cell-based; settings: Homo sapiens
Description: SANGER: Inhibition of human U-698-M cell growth in a cell viability assay.

[3] = tested on: LB647-SCLC; experiment: cells; type: functional, cell-based; settings: Homo sapiens;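 also: cell growth inhibition, read out by a viability assay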
Description: SANGER: Inhibition of human LB647-SCLC cell growth in a cell viability assay.

[4] = tested on: MHH-CALL-2; experiment: cells; type: functional, cell-based; settings: Homo sapiens;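 also: growth inhibition of the cell line, read out in a cell viability assay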
Description: SANGER: Inhibition of human MHH-CALL-2 cell growth in a cell viability assay.

[5] = tested on: SUP-T1; experiment: cells; type: functional, cell-based; settings: Homo sapiens;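 also: growth inhibition of human SUP-T1 cells, read out as cell viability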
Description: SANGER: Inhibition of human SUP-T1 cell growth in a cell viability assay.

[6] = tested on: TE-441-T; experiment: cells; type: functional, cell-based; settings: Homo sapiens
Description: SANGER: Inhibition of human TE-441-T cell growth in a cell viability assay.

[7] = tested on: JIYOYE; experiment: cells; type: functional, cell-based; settings: Homo sapiens
Description: SANGER: Inhibition of human JiyoyeP-2003 cell growth in a cell viability assay.

[8] = tested on: SK-MM-2; experiment: cells; type: functional, cell-based; settings: Homo sapiens;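 also: growth inhibition of human SK-MM-2 cells, read out with a cell viability assay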
Description: SANGER: Inhibition of human SK-MM-2 cell growth in a cell viability assay.

[9] = tested on: MONO-MAC-6; experiment: cells; type: functional, cell-based; settings: Homo sapiens;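 also: cell viability assay measuring growth inhibition of human MONO-MAC-6 cells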
Description: SANGER: Inhibition of human MONO-MAC-6 cell growth in a cell viability assay.

[10] = tested on: GDM-1; experiment: cells; type: functional, cell-based; settings: Homo sapiens;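 also: cell viability readout used to measure growth inhibition of human GDM-1 cells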
Description: SANGER: Inhibition of human GDM-1 cell growth in a cell viability assay.

[11] = tested on: MC-CAR; experiment: cells; type: functional, cell-based; settings: Homo sapiens;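 also: growth inhibition of the human MC-CAR cell line, read out by a cell viability assay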
Description: SANGER: Inhibition of human MC-CAR cell growth in a cell viability assay.

[12] = tested on: CHP-126; experiment: cells; type: functional, cell-based; settings: Homo sapiens
Description: SANGER: Inhibition of human CHP-126 cell growth in a cell viability assay.

[13] = tested on: BL-70; experiment: SANGER: Inhibition of human BL-70 cell growth in a cell viability assay.; type: functional, cell-based
[14] = tested on: NCI-H1963; experiment: cells; type: functional, cell-based; settings: Homo sapiens;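 also: cell growth inhibition of the human line, determined with a cell viability assay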
Description: SANGER: Inhibition of human NCI-H1963 cell growth in a cell viability assay.

[15] = tested on: Raji; experiment: cells; type: functional, cell-based; settings: Homo sapiens;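 also: cell viability assay measuring inhibition of Raji cell growth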
Description: SANGER: Inhibition of human Raji cell growth in a cell viability assay.

[16] = tested on: LC4-1; experiment: cells; type: functional, cell-based; settings: Homo sapiens;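 also: growth inhibition of LC4-1 cells, read out with a cell viability assay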
Description: SANGER: Inhibition of human LC4-1 cell growth in a cell viability assay.

[17] = tested on: A 172; experiment: cells; type: functional, cell-based; settings: Homo sapiens;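 also: growth inhibition of A172 cells, measured with a cell viability readout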
Description: SANGER: Inhibition of human A172 cell growth in a cell viability assay.

[18] = tested on: MDA-MB-415; experiment: cells; type: functional, cell-based; settings: Homo sapiens
[19] = tested on: SNU-423; experiment: cells; type: functional, cell-based; settings: Homo sapiens
Description: SANGER: Inhibition of human SNU-423 cell growth in a cell viability assay.

[20] = tested on: G-402; experiment: cells; type: functional, cell-based; settings: Homo sapiens
Description: SANGER: Inhibition of human G-402 cell growth in a cell viability assay.

[21] = tested on: CAL-12T; experiment: cells; type: functional, cell-based, Homo sapiens; settings: Homo sapiens, CAL-12T;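 also: growth inhibition of human CAL-12T cells, read out with a cell viability assay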
Description: SANGER: Inhibition of human CAL-12T cell growth in a cell viability assay.

[22] = tested on: CAPAN-1; experiment: cells; type: functional, cell-based; settings: Homo sapiens;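 also: growth suppression of CAPAN-1 cells, read out by a cell viability assay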
Description: SANGER: Inhibition of human CAPAN-1 cell growth in a cell viability assay.

[23] = tested on: NCI-H441; experiment: cells; type: functional, cell-based; settings: Homo sapiens;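 also: growth inhibition of NCI-H441 cells, read out with a cell viability assay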
Description: SANGER: Inhibition of human NCI-H441 cell growth in a cell viability assay.

[24] = tested on: C3A; experiment: cells; type: functional, cell-based; settings: Homo sapiens;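 also: growth inhibition of C3A human cells, quantified with a cell viability readout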
Description: SANGER: Inhibition of human C3A cell growth in a cell viability assay.

[25] = tested on: SW1088; experiment: cells; type: functional, cell-based; settings: Homo sapiens;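 also: growth inhibition of human SW1088 cells, read out by a cell viability assay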
Description: SANGER: Inhibition of human SW1088 cell growth in a cell viability assay.

[26] = tested on: COR-L105; experiment: cells; type: functional, cell-based; settings: Homo sapiens
Description: SANGER: Inhibition of human COR-L105 cell growth in a cell viability assay.

[27] = tested on: HOS; experiment: cells; type: functional, cell-based; settings: Homo sapiens;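 also: growth inhibition of human HOS cells, read out with a cell viability assay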
Description: SANGER: Inhibition of human HOS cell growth in a cell viability assay.

[28] = tested on: LU-99A; experiment: cells; type: functional, cell-based; settings: Homo sapiens;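 also: growth inhibition of LU-99A cells, read out with a cell viability assay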
Description: SANGER: Inhibition of human LU-99A cell growth in a cell viability assay.

[29] = tested on: HT55; experiment: cells; type: functional, cell-based; settings: Homo sapiens;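 also: cell viability readout measuring growth inhibition of human HT55 cells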
Description: SANGER: Inhibition of human HT55 cell growth in a cell viability assay.

[30] = tested on: EFM-19; experiment: cells; type: functional, cell-based; settings: Homo sapiens;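 also: growth inhibition of human EFM-19 cells, measured in a cell viability assay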
Description: SANGER: Inhibition of human EFM-19 cell growth in a cell viability assay.

[31] = tested on: UO-31; experiment: cells; type: functional, cell-based; settings: Homo sapiens
Description: SANGER: Inhibition of human U031 cell growth in a cell viability assay.

[32] = tested on: U-251; experiment: cells; type: functional, cell-based; settings: Homo sapiens;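 also: growth inhibition of human U-251 cells, read out through a cell viability assay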
Description: SANGER: Inhibition of human U251 cell growth in a cell viability assay.

[33] = tested on: S-117; experiment: cells; type: functional, cell-based; settings: Homo sapiens
Description: SANGER: Inhibition of human S-117 cell growth in a cell viability assay.

[34] = tested on: Hs-578T; experiment: cells; type: functional, cell-based; settings: Homo sapiens
Description: SANGER: Inhibition of human Hs-578-T cell growth in a cell viability assay.

[35] = tested on: CAL-120; experiment: cells; type: functional, cell-based; settings: Homo sapiens;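 also: cell growth inhibition, read out as cell viability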
Description: SANGER: Inhibition of human CAL-120 cell growth in a cell viability assay.

[36] = tested on: SCC-4; experiment: cells; type: functional, cell-based; settings: Homo sapiens;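 also: growth inhibition of human SCC-4 cells, read out as cell viability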
Description: SANGER: Inhibition of human SCC-4 cell growth in a cell viability assay.

[37] = tested on: H4; experiment: cells; type: functional, cell-based; settings: Homo sapiens
Description: SANGER: Inhibition of human H4 cell growth in a cell viability assay.

[38] = tested on: SAOS-2; experiment: cells; type: functional, cell-based; settings: Homo sapiens;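 also: growth inhibition of human Saos-2 cells determined by a cell viability assay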
Description: SANGER: Inhibition of human Saos-2 cell growth in a cell viability assay.

[39] = tested on: YAPC; experiment: cells; type: functional, cell-based; settings: Homo sapiens;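 also: growth inhibition of YAPC cells, measured with a cell viability assay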
Description: SANGER: Inhibition of human YAPC cell growth in a cell viability assay.

[40] = tested on: DU-145; experiment: cells; type: functional, cell-based; settings: Homo sapiens
Description: SANGER: Inhibition of human DU-145 cell growth in a cell viability assay.

[41] = tested on: A-427; experiment: cells; type: functional, cell-based; settings: Homo sapiens;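 also: growth inhibition of human A-427 cells, read out by a cell viability assay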
Description: SANGER: Inhibition of human A427 cell growth in a cell viability assay.

[42] = tested on: DMS-273; experiment: cells; type: functional, cell-based; settings: Homo sapiens
Description: SANGER: Inhibition of human DMS-273 cell growth in a cell viability assay.

[43] = tested on: A2780; experiment: cells; type: functional, cell-based; settings: Homo sapiens;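 also: growth inhibition of A2780 cells, read out with a cell viability assay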
Description: SANGER: Inhibition of human A2780 cell growth in a cell viability assay.

[44] = tested on: HGC-27; experiment: cells; type: functional, cell-based; settings: Homo sapiens;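 also: growth inhibition of human HGC-27 cells, read out in a cell viability assay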
Description: SANGER: Inhibition of human HGC-27 cell growth in a cell viability assay.

[45] = tested on: 8305C; experiment: cells; type: functional, cell-based; settings: Homo sapiens
Description: SANGER: Inhibition of human 8305C cell growth in a cell viability assay.

[46] = tested on: RT-112; experiment: cells; type: functional, cell-based; settings: Homo sapiens
Description: SANGER: Inhibition of human RT-112 cell growth in a cell viability assay.

[47] = tested on: SW837; experiment: cells; type: functional, cell-based; settings: Homo sapiens;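 also: growth inhibition of SW837 cells, determined with a cell viability assay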
Description: SANGER: Inhibition of human SW837 cell growth in a cell viability assay.

[48] = tested on: ESS-1; experiment: cells; type: functional, cell-based; settings: Homo sapiens;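 also: growth inhibition of human ESS-1 cells, read out by a cell viability assay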
Description: SANGER: Inhibition of human ESS-1 cell growth in a cell viability assay.

[49] = tested on: LK-2; experiment: cells; type: functional, cell-based; settings: Homo sapiens;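 also: growth inhibition of LK-2 cells, read out with a viability assay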
Description: SANGER: Inhibition of human LK-2 cell growth in a cell viability assay.

[50] = tested on: RERF-LC-MS; experiment: cells; type: functional, cell-based; settings: Homo sapiens;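 also: growth inhibition of human RERF-LC-MS cells, read out by a cell viability assay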
Description: SANGER: Inhibition of human RERF-LC-MS cell growth in a cell viability assay.

[51] = tested on: MDA-MB-175-VII; experiment: cells; type: functional, cell-based; settings: Homo sapiens
[52] = tested on: G-361; experiment: cells; type: functional, cell-based; settings: Homo sapiens
[53] = tested on: NCI-H727; experiment: cells; type: functional, cell-based; settings: Homo sapiens;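 also: growth inhibition of human NCI-H727 cells, read out with a cell viability assay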
Description: SANGER: Inhibition of human NCI-H727 cell growth in a cell viability assay.

[54] = tested on: MKN-45; experiment: cells; type: functional, cell-based; settings: Homo sapiens;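 also: growth inhibition of human MKN-45 cells, measured with a cell viability assay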
Description: SANGER: Inhibition of human MKN45 cell growth in a cell viability assay.

[55] = tested on: 5637; experiment: cells; type: functional, cell-based; settings: Homo sapiens
Description: SANGER: Inhibition of human 5637 cell growth in a cell viability assay.

[56] = tested on: HT-1080; experiment: cells; type: functional, cell-based; settings: Homo sapiens
Description: SANGER: Inhibition of human HT-1080 cell growth in a cell viability assay.

[57] = tested on: DK-MG; experiment: cells; type: functional, cell-based; settings: Homo sapiens;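 also: growth inhibition of DK-MG cells, read out with a cell viability assay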
Description: SANGER: Inhibition of human DK-MG cell growth in a cell viability assay.

[58] = tested on: NCI-H2087; experiment: cells; type: functional, cell-based; settings: Homo sapiens;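 also: growth inhibition determined with a cell viability readout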
Description: SANGER: Inhibition of human NCI-H2087 cell growth in a cell viability assay.

[59] = tested on: NCI-H661; experiment: cells; type: functional, cell-based; settings: Homo sapiens;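 also: cell viability assay read-out, IC50 being the concentration that inhibits growth of the cells by half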
Description: SANGER: Inhibition of human NCI-H661 cell growth in a cell viability assay.

[60] = tested on: NCI-H596; experiment: cells; type: functional, cell-based; settings: Homo sapiens;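 also: growth inhibition of NCI-H596 cells, read out with a cell viability assay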
Description: SANGER: Inhibition of human NCI-H596 cell growth in a cell viability assay.

[61] = tested on: OE33; experiment: cells; type: functional, cell-based; settings: Homo sapiens;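 also: growth inhibition of human OE33 cells, measured by a cell viability assay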
Description: SANGER: Inhibition of human OE33 cell growth in a cell viability assay.

[62] = tested on: A-431; experiment: cells; type: functional, cell-based; settings: Homo sapiens;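 also: growth inhibition of A-431 cells, determined with a cell viability read-out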
Description: SANGER: Inhibition of human A431 cell growth in a cell viability assay.

[63] = tested on: IGROV-1; experiment: cells; type: functional, cell-based; settings: Homo sapiens;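 also: reduction of IGROV-1 cell growth, read out with a viability assay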
Description: SANGER: Inhibition of human IGROV-1 cell growth in a cell viability assay.

[64] = tested on: HCC38; experiment: cells; type: functional, cell-based; settings: Homo sapiens;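 also: cell viability assay on the human HCC38 cell line, with IC50 marking the concentration that inhibits cell growth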
Description: SANGER: Inhibition of human HCC38 cell growth in a cell viability assay.

[65] = tested on: CAL-33; experiment: cells; type: functional, cell-based; settings: Homo sapiens;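 also: growth inhibition of CAL-33 cells, read out with a cell viability assay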
Description: SANGER: Inhibition of human CAL-33 cell growth in a cell viability assay.

## Cc1ccc(NC(=O)c2cccc(C(C)(C)C#N)c2)cc1Nc1ccc2ncn(C)c(=O)c2c1
[1]
  IC50: 3.3 µM
[2]
  IC50: > 4 µM
[3]
  IC50: > 4 µM
[4]
  IC50: > 4 µM
[5]
  IC50: 1.74 µM
[6]
  IC50: 2.81 µM
[7]
  IC50: > 4 µM
[8]
  IC50: > 4 µM
[9]
  IC50: > 4 µM
[10]
  IC50: 0.229 µM
[11]
  IC50: > 4 µM
[12]
  IC50: > 4 µM
[13]
  IC50: 2.86 µM
[14]
  IC50: > 4 µM
[15]
  IC50: > 4 µM
[16]
  IC50: > 4 µM

## CCCS(=O)(=O)Nc1ccc(F)c(C(=O)c2c[nH]c3ncc(Cl)cc23)c1F [PLX-4720]
[17]
  IC50: > 10 µM
[18]
  IC50: > 10 µM
[19]
  IC50: > 10 µM
[20]
  IC50: > 10 µM
[21]
  IC50: > 10 µM
[22]
  IC50: > 10 µM
[23]
  IC50: > 10 µM
[24]
  IC50: > 10 µM
[25]
  IC50: > 10 µM
[26]
  IC50: > 10 µM
[27]
  IC50: > 10 µM
[28]
  IC50: > 10 µM
[29]
  IC50: > 10 µM
[30]
  IC50: > 10 µM
[31]
  IC50: > 10 µM
[32]
  IC50: > 10 µM
[33]
  IC50: > 10 µM
[34]
  IC50: > 10 µM
[35]
  IC50: > 10 µM
[36]
  IC50: > 10 µM
[37]
  IC50: 6.22 µM
[38]
  IC50: > 10 µM
[39]
  IC50: > 10 µM
[40]
  IC50: > 10 µM
[41]
  IC50: > 10 µM
[42]
  IC50: > 10 µM
[43]
  IC50: > 10 µM
[44]
  IC50: > 10 µM
[45]
  IC50: 5.19 µM
[46]
  IC50: > 10 µM
[47]
  IC50: > 10 µM
[48]
  IC50: > 10 µM
[49]
  IC50: > 10 µM
[50]
  IC50: > 10 µM
[51]
  IC50: > 10 µM
[52]
  IC50: 0.346 µM
[53]
  IC50: > 10 µM
[54]
  IC50: > 10 µM
[55]
  IC50: > 10 µM
[56]
  IC50: 6.11 µM
[57]
  IC50: > 10 µM
[58]
  IC50: > 10 µM
[59]
  IC50: > 10 µM
[60]
  IC50: > 10 µM
[61]
  IC50: > 10 µM
[62]
  IC50: > 10 µM
[63]
  IC50: > 10 µM
[64]
  IC50: > 10 µM
[65]
  IC50: > 10 µM

## C[C@]1(c2nc3c(C(N)=O)cccc3[nH]2)CCCN1 [VELIPARIB]
[17]
  IC50: > 5 µM
[18]
  IC50: > 5 µM
[19]
  IC50: > 5 µM
[20]
  IC50: > 5 µM
[21]
  IC50: > 5 µM
[22]
  IC50: > 5 µM
[23]
  IC50: > 5 µM
[24]
  IC50: > 5 µM
[25]
  IC50: > 5 µM
[26]
  IC50: > 5 µM
[27]
  IC50: > 5 µM
[28]
  IC50: > 5 µM
[29]
  IC50: > 5 µM
[30]
  IC50: > 5 µM
[31]
  IC50: > 5 µM
[32]
  IC50: > 5 µM
[33]
  IC50: > 5 µM
[34]
  IC50: > 5 µM
[35]
  IC50: > 5 µM
[36]
  IC50: > 5 µM
[37]
  IC50: > 5 µM
[38]
  IC50: > 5 µM
[39]
  IC50: > 5 µM
[40]
  IC50: > 5 µM
[41]
  IC50: > 5 µM
[42]
  IC50: > 5 µM
[43]
  IC50: > 5 µM
[44]
  IC50: > 5 µM
[45]
  IC50: > 5 µM
[46]
  IC50: > 5 µM
[47]
  IC50: > 5 µM
[48]
  IC50: > 5 µM
[49]
  IC50: > 5 µM
[50]
  IC50: > 5 µM
[51]
  IC50: > 5 µM
[52]
  IC50: > 5 µM
[53]
  IC50: > 5 µM
[54]
  IC50: > 5 µM
[55]
  IC50: > 5 µM
[56]
  IC50: > 5 µM
[57]
  IC50: > 5 µM
[58]
  IC50: > 5 µM
[59]
  IC50: > 5 µM
[60]
  IC50: > 5 µM
[61]
  IC50: > 5 µM
[62]
  IC50: > 5 µM
[63]
  IC50: > 5 µM
[64]
  IC50: > 5 µM
[65]
  IC50: > 5 µM

## CC[C@]1(O)C[C@@H]2CN(CCc3c([nH]c4ccccc34)[C@@](C(=O)OC)(c3cc4c(cc3OC)N(C)[C@H]3[C@@](O)(C(=O)OC)[C@H](OC(C)=O)[C@]5(CC)C=CCN6CC[C@]43[C@@H]65)C2)C1 [VINBLASTINE]
[17]
  IC50: 0.00962 µM
[18]
  IC50: 0.0185 µM
[19]
  IC50: 0.0195 µM
[20]
  IC50: 0.0176 µM
[21]
  IC50: 0.056 µM
[22]
  IC50: 0.0523 µM
[23]
  IC50: > 0.1 µM
[24]
  IC50: > 0.1 µM
[25]
  IC50: 0.017 µM
[26]
  IC50: 0.0657 µM
[27]
  IC50: 0.00625 µM
[28]
  IC50: 0.0208 µM
[29]
  IC50: > 0.1 µM
[30]
  IC50: 0.00524 µM
[31]
  IC50: 0.0139 µM
[32]
  IC50: 0.00502 µM
[33]
  IC50: 0.00558 µM
[34]
  IC50: 0.0173 µM
[35]
  IC50: 0.0873 µM
[36]
  IC50: 0.00239 µM
[37]
  IC50: 0.00584 µM
[38]
  IC50: 0.0323 µM
[39]
  IC50: 0.087 µM
[40]
  IC50: 0.0987 µM
[41]
  IC50: 0.0125 µM
[42]
  IC50: 0.0034 µM
[43]
  IC50: 0.00461 µM
[44]
  IC50: 0.00101 µM
[45]
  IC50: 0.00367 µM
[46]
  IC50: 0.00271 µM
[47]
  IC50: > 0.1 µM
[48]
  IC50: 0.00488 µM
[49]
  IC50: 0.0075 µM
[50]
  IC50: 0.0151 µM
[51]
  IC50: > 0.1 µM
[52]
  IC50: > 0.1 µM
[53]
  IC50: > 0.1 µM
[54]
  IC50: 0.0484 µM
[55]
  IC50: 0.000951 µM
[56]
  IC50: 0.00423 µM
[57]
  IC50: 0.00665 µM
[58]
  IC50: 0.0305 µM
[59]
  IC50: 0.00805 µM
[60]
  IC50: > 0.1 µM
[61]
  IC50: 0.0286 µM
[62]
  IC50: > 0.1 µM
[63]
  IC50: > 0.1 µM
[64]
  IC50: 0.0584 µM
[65]
  IC50: 0.00618 µM
